This note sets out measurements from patent US20070142462A1, “Method of Treating Cancer” (The University of Utah, priority 2000, published 2007).

For test [1], the system named is M1619 melanoma cells. The test can be described thus: MTT proliferation assay, M1619 melanoma. The format is cell-based, human. Here is the method: Measurement of Proliferation in Cell Cultures. Proliferation of cultured cells was quantitated using a previously reported calorimetric method based upon metabolic reduction of the soluble yellow tetrazolium dye 3-[4,5-dimethylthiazol]-2yl-2,5-diphenyl tetrazolium bromide (MTT) to its insoluble purple formazan by the action of mitochondrial succinyl dehydrogenase. […] This assay empirically distinguishes between dead and living cells. For proliferation studies, cells were seeded into 24-well uncoated plastic plates (Costar) at 15,000-50,000 cells per well and cultured with respective media and mitogens. After 24-96 hours, medium was removed, cells were washed twice with 1 ml of sterile Dulbecco's modified phosphate buffered saline without Ca^2+ or Mg^2+ (DPBS), the medium was replaced with 1 ml/well fresh medium containing 100 μg/ml MTT, and plates were incubated an additional hour. MTT-containing medium was removed, 0.5 ml dimethylsulfoxide (DMSO) was added to each well, and the absorbance of the solubilized purple formazan dye was measured at 540 nm. A total of 4-6 wells was studied at each treatment condition. Preliminary studies were performed with 50-200 μg/ml MTT incubated for 15 min to 3 hours to determine the optimum concentration and incubation time at which the rate of conversion was linear and proportional to the number of cells present.
Cell Culture Treatments. The effect of antioxidant treatments on proliferation of malignant cell lines was studied in cultures stimulated with 10% FBS. Cell numbers were quantitated by the MTT assay 24-72 hours later. In some experiments, antioxidants were added immediately after cells were plated. In other experiments, cells were plated and allowed to grow for 24 hours before fresh media with antioxidants was added, and cell numbers were studied by the MTT assay 48 hours later.
A. M1619 melanoma cells stimulated with 10% fetal bovine serum (FBS) were plated at a density of 50,000 cells per well and antioxidants were added to wells at the indicated concentrations (mM or U/ml). After 48 hours, proliferation was quantitated by assessing the cell number-dependent reduction of the soluble yellow tetrazolium dye 3-[4,5-dimethylthiazol]-2yl-2,5-diphenyl tetrazolium bromide (MTT) to its insoluble formazan, measured as the absorbance at 540 nm (A540). The antioxidants tested included no antioxidant (control, i.e., FBS alone), 1000 U/ml SOD, 20 mM NAC, 500 U/ml, 1000 U/ml, and 3000 U/ml of catalase, and boiled […] catalase.
B. In a separate experiment, 2 μl/well of DMSO (served as control), 5 μM, 10 μM, and 25 μM Ebselen were tested on M1619 melanoma cells as described above, except that the cells were cultured for 72 hours before proliferation was measured.
C. 3000 U/ml Catalase, 2 μl/well DMSO, 25 μM Ebselen, and 50 μM Ebselen were tested as described above except that the compounds were added 24 hours after M1619 cells were plated. After the addition of antioxidants, the cells were incubated for an additional 48 hours and cell proliferation was quantitated. […]
On the technique in general: Tetrazolium dyes change colour on reduction, which living cells bring about.

Test [2] deals with NF-κB. The test can be described thus: EMSA of constitutive nuclear NF-κB DNA binding, M1585. The following applies: M1585 melanoma; catalase 3,000 U/ml for 24 hours. The format is cell-based, human. Here is the method:
The effect of antioxidants on nuclear activation of NF-κB was studied by incubating near confluent (70%) cell cultures with antioxidant treatments for 1-48 hours. Nuclear protein was harvested, and EMSAs were performed using DNA consensus binding sequences, or nuclear translocation of the p65 component of NF-κB was studied by immunoperoxidase staining, as outlined below.
Electrophoretic Mobility Shift Assays (EMSAs). Nuclear protein was isolated and DNA binding reactions were performed as previously described in detail, Kennedy et al., Am. J. Respir. Cell Mol. Biol. 19:366-378 (1998). Monolayers were washed twice in cold DPBS and equilibrated 10 min on ice with 0.7 ml cold cytoplasmic extraction buffer, CEB (10 mM Tris, pH 7.9, 60 mM KCl, 1 mM EDTA, 1 mM DTT) with protease inhibitors, PI (1 mM Pefabloc, 50 μg/ml antipain, 1 μg/ml leupeptin, 1 μg/ml pepstatin, 40 μg/ml bestatin, 3 μg/ml E-64 and 100 μg/ml chymostatin). […] DNA-protein binding reactions were performed with 2 μg of nuclear protein (as determined by the Pierce method) and 30-80,000 cpm of ^32P-end-labelled double-stranded DNA probe in 10 mM Tris-HCl, pH 7.5, 50 mM NaCl, 0.5 mM EDTA, 0.5 mM DTT, 1 mM MgCl2, 50 μg/ml poly dI-dC, and 4% glycerol. […] Gels were dried and analyzed by autoradiography at −80° C. using an image intensifier screen. […]
In general terms: In EMSA bound probe runs differently from free probe, usually more slowly.

Regarding Catalase, the “Proliferation of M1619 melanoma cells (MTT, A540)” value in test [1] (10% FBS, agents added at plating, 48 hours (ebselen 72 hours)) is reported as “reduced proliferation”. Further, the “Proliferation of M1619 melanoma cells, agents added 24 hours after plating” value in test [1] (catalase 3000 U/ml, Ebselen 25 and 50 μM, further 48 hours) is “antiproliferative”. For the same substance, the “constitutive nuclear DNA binding activity for NF-κB” value in test [2] is “suppressed”.
